Nine molecules from patent US20260108546A1 (ELI LILLY AND COMPANY, priority 2024, published 2026) can be followed below.

The target in this assay is T1, hGIP-R (Homo sapiens, UniProt P48546).
T1 construct: expressed in transfected cells; host or cells: HEK-293 clonal cell lines
T1 sequence (P48546 22-466): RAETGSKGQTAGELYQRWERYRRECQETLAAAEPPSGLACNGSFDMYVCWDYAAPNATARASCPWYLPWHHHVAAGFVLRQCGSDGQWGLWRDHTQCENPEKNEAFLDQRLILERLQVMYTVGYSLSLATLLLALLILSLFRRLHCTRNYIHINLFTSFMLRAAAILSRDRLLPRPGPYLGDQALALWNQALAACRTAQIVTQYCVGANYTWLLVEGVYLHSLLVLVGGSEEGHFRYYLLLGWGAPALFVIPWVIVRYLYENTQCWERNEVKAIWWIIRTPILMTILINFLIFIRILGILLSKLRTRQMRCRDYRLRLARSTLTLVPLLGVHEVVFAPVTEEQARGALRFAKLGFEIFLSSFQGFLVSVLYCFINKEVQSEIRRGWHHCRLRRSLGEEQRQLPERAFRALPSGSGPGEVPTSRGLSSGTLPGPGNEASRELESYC
In words: Functional hGIP-R Assay (cAMP formation, HTRF). The format is cell-based. Conditions: for Emax: cAMP efficacy, percent of maximal response to GIP(1-42)OH, 37° C., 0.1% bovine casein, arithmetic mean ± SEM; for EC50: cAMP potency, HEK-293 cells expressing hGIP-R, incubated at 37° C. in the presence of 0.1% bovine casein, geometric mean, read-out: Human GIP-R EC50, nM (SEM, n). Summed up: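 HEK-293 cells expressing hGIP-R were given a 20-point compound series in DMEM with 0.1% casein, 250 μM IBMX, 1% DMSO, 30 min at 37 °C. cAMP was read by HTRF against a standard curve, expressed as % of human GIP (1-42) OH maximum; EC50 and Emax came from four-parameter fits.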
On the technique in general: cAMP levels reflect the balance of adenylyl cyclase and phosphodiesterase activity.

Where a name gives a salt, the structure may show the parent alone.

What is called Emax is the greatest response seen or fitted, relative to the assay's reference. What is called EC50 is the concentration that produces a half-maximal response.

Consider `[2H]C([2H])([2H])n1cc(C[C@H](C(=O)NC(C)(C)Cn2nc(C(F)(F)F)cc2-c2ccc(C(C)(C)O)nc2)N2CC[C@@]3(C[C@@H]3c3ccc(-c4cnc5nn(C6CC6)cc5c4)nc3C)C2=O)cn1` [Example 190, (R)-2-((1R,3R)-1-(6-(2-cyclopropyl-2H-pyrazolo[3,4-b]pyridin-5-yl)-2-methylpyridin-3-yl)-4-oxo-5-azaspiro[2.4]heptan-5-yl)-N-(1-(5-(6-(2-hydroxypropan-2-yl)pyridin-3-yl)-3-(trifluoromethyl)-1H-pyrazol-1-yl)-2-methylpropan-2-yl)-3-(1-(methyl-d3)-1H-pyrazol-4-yl)propanamide], for which the Emax turned out to be 80.2 ± 6.78% and the EC50 was 1.12 nM.
For `[2H]C([2H])([2H])n1cc(C[C@H](C(=O)NC(C)(C)Cn2nc(C(F)(F)F)cc2-c2cnc(C(C)(C)O)nc2)N2CC[C@@]3(C[C@@H]3c3ccc(-c4cnc5nn(C6CC6)cc5c4)nc3C)C2=O)cn1` [Example 191, (R)-2-((1R,3R)-1-(6-(2-cyclopropyl-2H-pyrazolo[3,4-b]pyridin-5-yl)-2-methylpyridin-3-yl)-4-oxo-5-azaspiro[2.4]heptan-5-yl)-N-(1-(5-(2-(2-hydroxypropan-2-yl)pyrimidin-5-yl)-3-(trifluoromethyl)-1H-pyrazol-1-yl)-2-methylpropan-2-yl)-3-(1-(methyl-d3)-1H-pyrazol-4-yl)propanamide], in that order: 78.5 ± 0.865% and 2.89 nM.
Take `[2H]C([2H])([2H])n1cc(C[C@H](C(=O)NC(C)(C)Cn2nc(C(F)(F)F)cc2-c2ccc(C(C)(C)O)nc2)N2CC[C@@]3(C[C@@H]3c3ccc(-c4cnc5nc(COC)cn5c4)nc3C3CC3)C2=O)cn1` [Example 192, (R)-2-((1R,3R)-1-(2-cyclopropyl-6-(2-(methoxymethyl)imidazo[1,2-a]pyrimidin-6-yl)pyridin-3-yl)-4-oxo-5-azaspiro[2.4]heptan-5-yl)-N-(1-(5-(6-(2-hydroxypropan-2-yl)pyridin-3-yl)-3-(trifluoromethyl)-1H-pyrazol-1-yl)-2-methylpropan-2-yl)-3-(1-(methyl-d3)-1H-pyrazol-4-yl)propanamide]: the Emax turned out to be 129% and the EC50 was found to be 0.0409 nM.
For `[2H]C([2H])([2H])n1cc(C[C@H](C(=O)NC(C)(C)Cn2nc(C(F)(F)F)cc2-c2cnc(C(C)(C)O)nc2)N2CC[C@@]3(C[C@@H]3c3ccc(-c4cnc5nn(C)cc5c4)cc3Cl)C2=O)cn1` [Example 193, (R)-2-((1S,3R)-1-(2-chloro-4-(2-methyl-2H-pyrazolo[3,4-b]pyridin-5-yl)phenyl)-4-oxo-5-azaspiro[2.4]heptan-5-yl)-N-(1-(5-(2-(2-hydroxypropan-2-yl)pyrimidin-5-yl)-3-(trifluoromethyl)-1H-pyrazol-1-yl)-2-methylpropan-2-yl)-3-(1-(methyl-d3)-1H-pyrazol-4-yl)propanamide], the Emax turned out to be 85.5 ± 0.117% and the EC50 was 1.33 nM.
In the case of `[2H]C([2H])([2H])n1cc(C[C@H](C(=O)NC(C)(C)Cn2nc(C(F)(F)F)cc2-c2ccc(C(C)(C)O)nc2)N2CC[C@@]3(C[C@@H]3c3ccc(-c4cnc5nn(C)cc5c4)cc3Cl)C2=O)cn1` [Example 194, (R)-2-((1S,3R)-1-(2-chloro-4-(2-methyl-2H-pyrazolo[3,4-b]pyridin-5-yl)phenyl)-4-oxo-5-azaspiro[2.4]heptan-5-yl)-N-(1-(5-(6-(2-hydroxypropan-2-yl)pyridin-3-yl)-3-(trifluoromethyl)-1H-pyrazol-1-yl)-2-methylpropan-2-yl)-3-(1-(methyl-d3)-1H-pyrazol-4-yl)propanamide], the Emax is 64.1 ± 0.489% and the EC50 is 0.567 nM.
For `[2H]C([2H])([2H])n1cc(C[C@H](C(=O)NC(C)(C)Cn2nc(C(F)(F)F)cc2-c2ccc(C(C)(C)OP(=O)(O)O)nc2)N2CC[C@@]3(C[C@@H]3c3ccc(-c4cnc5nn(C)cc5c4)cc3Cl)C2=O)cn1` [Example 195, 2-(5-(1-(2-((R)-2-((1S,3R)-1-(2-Chloro-4-(2-methyl-2H-pyrazolo[3,4-b]pyridin-5-yl)phenyl)-4-oxo-5-azaspiro[2.4]heptan-5-yl)-3-(1-(methyl-d3)-1H-pyrazol-4-yl)propanamido)-2-methylpropyl)-3-(trifluoromethyl)-1H-pyrazol-5-yl)pyridin-2-yl)propan-2-yl dihydrogen phosphate, ammonia salt] the same measures were 88.8% and 2.36 nM.
For `Cc1nc(-c2cnc3nc(C4CC4)cn3c2)ccc1[C@H]1C[C@@]12CCN([C@H](Cc1cnn(C(F)F)c1)C(=O)NC(C)(C)Cn1nc(C(F)(F)F)cc1-c1cnc(C(C)(C)OP(=O)(O)O)nc1)C2=O` [Example 196, 2-(5-(1-(2-((R)-2-((1R,3R)-1-(6-(2-Cyclopropylimidazo[1,2-a]pyrimidin-6-yl)-2-methylpyridin-3-yl)-4-oxo-5-azaspiro[2.4]heptan-5-yl)-3-(1-(difluoromethyl)-1H-pyrazol-4-yl)propanamido)-2-methylpropyl)-3-(trifluoromethyl)-1H-pyrazol-5-yl)pyrimidin-2-yl)propan-2-yl dihydrogen phosphate, ammonia salt] the same measures were 95.7% and 0.601 nM.
For `Cc1nc(-c2cnc3nc(C4CC4)cn3c2)ccc1[C@H]1C[C@@]12CCN([C@H](Cc1cnn(C(F)F)c1)C(=O)NC(C)(C)Cn1nc(C(F)(F)F)cc1-c1ccc(C(C)(C)OP(=O)(O)O)nc1)C2=O` [Example 197, 2-(5-(1-(2-((R)-2-((1R,3R)-1-(6-(2-Cyclopropylimidazo[1,2-a]pyrimidin-6-yl)-2-methylpyridin-3-yl)-4-oxo-5-azaspiro[2.4]heptan-5-yl)-3-(1-(difluoromethyl)-1H-pyrazol-4-yl)propanamido)-2-methylpropyl)-3-(trifluoromethyl)-1H-pyrazol-5-yl)pyridin-2-yl)propan-2-yl dihydrogen phosphate, ammonia salt], the Emax was determined as 119% and the EC50 amounted to 0.66 nM.
For `[2H]C([2H])([2H])n1cc(C[C@H](C(=O)NC(C)(C)Cn2nc(C(F)(F)F)cc2-c2cnc(C(C)(C)OP(=O)(O)O)nc2)N2CC[C@@]3(C[C@@H]3c3ccc(-c4cnc5nn(C)cc5c4)cc3Cl)C2=O)cn1` [Example 198, 2-(5-(1-(2-((R)-2-((1S,3R)-1-(2-Chloro-4-(2-methyl-2H-pyrazolo[3,4-b]pyridin-5-yl)phenyl)-4-oxo-5-azaspiro[2.4]heptan-5-yl)-3-(1-(methyl-d3)-1H-pyrazol-4-yl)propanamido)-2-methylpropyl)-3-(trifluoromethyl)-1H-pyrazol-5-yl)pyrimidin-2-yl)propan-2-yl dihydrogen phosphate, ammonia salt], in that order: 90.3% and 1.81 nM.
